How the values were obtained:
[1] = tested on: patients following major abdominal surgery; assay: M6G022 study: analgesic efficacy and tolerability of M6G and morphine following major abdominal surgery
Experimental: Pain relief, nausea and emesis were recorded for 24 to 48 hours after start of the patient controlled analgesia.
The study site personnel (with the exception of the pharmacy); representatives of the sponsoring company; and the organisation involved in monitoring, data management, or other aspects of the study were blinded to the study treatment. The use of midazolam, temazepam, zopiclone or other short-acting pre-operative anxiolytics was allowed. All patients received a standardised general anaesthetic consisting of propofol induction, with either isoflurane or sevoflurane maintenance. These inhalational agents are associated with a similar risk of PONV. Nitrous oxide was not allowed because of its emetic effects, and the risk of an imbalance in its use. An initial bolus of 1-3 μg/kg of fentanyl or 0.1-0.3 μg/kg of sufentanyl followed by further doses as required, was used for pre- and peri-operative analgesia. Post-operative analgesia was provided by the study drug.
The investigator could administer up to 5 ml of PCA study drug, on no more than two occasions in each 24 hour post-operative period, as rescue medication if the patient was in uncontrolled pain. […] The patients stayed on PCA for a minimum of 24 hours following surgery, but could continue up to 48 hours if clinically indicated.
No prophylactic antiemetic was given, although iv ondansetron (4 mg/2 ml) was available if the patient experienced severe nausea, or immediately following emesis. If this was ineffective further doses of ondansetron; or other agents such as cyclizine, prochlorperazine or perphenazine; were allowed.
Pain intensity at rest was assessed by the patients using the VRS-11 scale at baseline, 15, 30 and 45 minutes and 1, 2, 4, 6, 9, 12, 15, 18, 21 and 24 hours after the start of PCA. A numerical scale was chosen because of the practical difficulty for post-operative patients of completing a visual analogue scale. If the patient remained on PCA after 24 hours, the pain scores were recorded every 8 hours up to 48 hours. In addition, at the end of the study the patients and observers were asked to assess the acceptability of their pain relief over the entire study using a 5 point rating global scale ranging from very poor (1) to excellent (5). […] The total consumption of study drugs was calculated.
Emesis risk factors of female gender; history of motion sickness or PONV; or smoking status were recorded at screening. Post-operative nausea was assessed by the patient using a 4 point ordinal scale (none, mild, moderate, severe) and occurrence of vomiting or dry retching recorded (yes/no; and if yes, the number of episodes) pre-operatively (Day −1), at baseline, and at 1, 2, 4, 6, 9, 12, 15, 18, 21, 24, 32, 40 and 48 hours after administration of the test analgesic. Nausea and vomiting were also combined in a single scoring system (postoperative nausea & vomiting, PONV), with an episode of vomiting or dry retching being scored as a 3 (severe) on the nausea scale.
Sedation was assessed using a combination of a binary question (sleepy, yes or no) and a 3 point ordinal scale (mild, moderate, severe) if the patient was sedated. All adverse events were recorded, along with concomitant medication use, with particular attention being paid to the use of anti-emetics.
The Intention to Treat (ITT) set of patients comprised all those who had been exposed to study medication at least once. This analysis set was the basis for the main efficacy and all safety and demographic analyses. Data were double entered using interactive verification into a CLINTRIAL database (Version 3.3.3, Phase Forward, Waltham, Mass., USA), and analysed using SAS (version 8.2, SAS Institute Inc., Cary, N.C., USA).

[2] = tested on: patients with pain treatment after surgery; assay: Meta analysis of four clinical studies with M6G pain treatment after surgery
Source text: The four studies M6G001, M6G012, M6G015 and M6G022 are described in the following.
The following variables were included in the meta analysis:
Nausea (none, mild, moderate, severe)
Sedation (none, mild, moderate, severe)
Pain (none, mild, moderate, severe)

## CN1CC[C@]23c4c5ccc(O)c4O[C@H]2[C@@H](OC2OC(C(=O)O)C(O)C(O)C2O)C=CC3[C@H]1C5 (stereo partly drawn) [M6G, (5α,6α)-7,8-Didehydro-4,5-epoxy-3-hydroxy-17-methylmorphinan-β-yl-β-D-glucopyranosiduronic acid]
[1]; 0-24 hours
  reduction of AUC for vomiting and dry retching in favour of M6G: 32.3%
[1]; 4-48 h
  mean totals of PCA demands: 53.1
[1]; 6-24 hours
  reduction of AUC for vomiting and dry retching in favour of M6G: 34.2%
[1]; AUC 0-6 h
  Reduction of PONV AUC, M6G vs morphine: 27.0%
[1]; AUC 0-12 h
  Reduction of PONV AUC, M6G vs morphine: 26.3%
[1]; AUC 0-24 h
  Reduction of PONV AUC, M6G vs morphine: 24.3%
[1]; AUC 6-24 h
  Reduction of PONV AUC, M6G vs morphine: 28.5%
[1]; AUC 12-24 h
  Reduction of PONV AUC, M6G vs morphine: 24.5%
[1]; AUC 24-48 h
  Reduction of PONV AUC, M6G vs morphine: 10.3%
[1]; baseline
  patients with sedation score recorded as severe: 20.9%
[1]; baseline (when given control of the PCA button)
  patients sedated: 75.7%
[1]; early post-operative period (up to 4 hours)
  mean totals of PCA demands: 33.5
[1]; initial 24 hours post-operatively
  magnitude of reduction of PONV: 24-29%
[1]; loading and recovery doses before PCA
  dose required to achieve comfort initially: 45.0 mg/70 kg
[1]; over the 24 hours, VRS-11
  difference between the adjusted means of pain intensity AUCs for M6G and morphine: +3.318
[1]; whole 24 hour period
  pain intensity compared with morphine: non-inferior to morphine
[2]; human, in vivo, intravenous
  patients with moderate to severe sedation: 63.5%
[2]; time window 0 to 6 hours
  patients with moderate to severe pain: 50.5%
[2]; time window 6-24 hours
  patients with moderate to severe pain: 19.1%
[2]; worst assessment
  patients with moderate to severe nausea: 23.9%
  patients with vomiting: 26.0%
